Counter-ions that a name gives are not always drawn.
Experiments:
NLRP3 [1] = target: T1, NLRP3 (Homo sapiens, UniProt Q96P20); assay: THP-1 cells pyroptosis assay; assay type: cell-based; design: Seed THP-1 cells (25,000cells/well) containing 1.0 μg/ml LPS in 40 μl of RPMI medium; host or cells: THP-1 cells; conditions: LPS 1 μg/ml, nigericin 5 μM, resazurin readout
Experimental: The cells were routinely passaged and grown to confluency (˜10^6 cells/ml). On the day of the experiment, THP-1 cells were harvested and resuspended into RPMI medium (without FBS). The cells were then counted and viability (>90%) checked by Trypan blue (Sigma #T8154). […] To this diluted cell solution was added LPS (Sigma #L4524) to give a 1 μg/ml Final Assay Concentration (FAC). 40 μl of the final preparation was aliquoted into each well of a 96-well plate. The plate thus prepared was used for compound screening.
The following method step-by-step assay was followed for compound screening. • 1. […] Incubate for 3 hrs at 37° C., 5% CO2 • 4. Add 5 μl nigericin (Sigma #N7143) (FAC 5 μM) to all wells • 5. Incubate for 1 hr at 37° C., 5% CO2 • 6. At the end of the incubation period, spin plates at 300×g for 3 mins and remove supernatant • 7. Then add 50 μl of resazurin (Sigma #R7017) (FAC 100 μM resazurin in RPMI medium without FBS) and incubate plates for a further 1-2 hrs at 37° C. and 5% CO2 • 8. […] IC50 data is fitted to a non-linear regression equation (log inhibitor vs response-variable slope 4-parameters)

NLRP3 [2] = target: T1, NLRP3; assay: Human whole blood IL-1β release assay; assay type: cell-based; design: Human whole blood in Li-heparin tubes was obtained from healthy donors from a volunteer donor panel; from tissue; host or cells: human whole blood from healthy donors; conditions: LPS 1 μg/ml, nigericin 10 μM, IL-1β AlphaLisa, read-out: HWB IC50
Experimental: For systemic delivery, the ability to inhibit NLRP3 when the compounds are present within the bloodstream is of great importance. For this reason, the NLRP3 inhibitory activity of a number of compounds in human whole blood was investigated in accordance with the following protocol.
Human whole blood in Li-heparin tubes was obtained from healthy donors from a volunteer donor panel. • 1. […] Incubate for 3 hrs at 37° C., 5% CO2 • 4. Add 10 μl nigericin (Sigma #N7143) (10 μM FAC) to all wells • 5. Incubate for 1 hr at 37° C., 5% CO2 • 6. At the end of the incubation period, spin plates at 300 ×g for 5 mins to pellet cells and remove 20 μl of supernatant and add to 96-well v-bottom plates for IL-1β analysis (note: these plates containing the supernatants can be stored at −80° C. to be analysed at a later date) • 7. IL-1β was measured according to the manufacturer protocol (Perkin Elmer-AlphaLisa IL-1 Kit AL220F-5000) • 8. IC50 data is fitted to a non-linear regression equation (log inhibitor vs response-variable slope 4-parameters)

T1 sequence (Q96P20 whole entry): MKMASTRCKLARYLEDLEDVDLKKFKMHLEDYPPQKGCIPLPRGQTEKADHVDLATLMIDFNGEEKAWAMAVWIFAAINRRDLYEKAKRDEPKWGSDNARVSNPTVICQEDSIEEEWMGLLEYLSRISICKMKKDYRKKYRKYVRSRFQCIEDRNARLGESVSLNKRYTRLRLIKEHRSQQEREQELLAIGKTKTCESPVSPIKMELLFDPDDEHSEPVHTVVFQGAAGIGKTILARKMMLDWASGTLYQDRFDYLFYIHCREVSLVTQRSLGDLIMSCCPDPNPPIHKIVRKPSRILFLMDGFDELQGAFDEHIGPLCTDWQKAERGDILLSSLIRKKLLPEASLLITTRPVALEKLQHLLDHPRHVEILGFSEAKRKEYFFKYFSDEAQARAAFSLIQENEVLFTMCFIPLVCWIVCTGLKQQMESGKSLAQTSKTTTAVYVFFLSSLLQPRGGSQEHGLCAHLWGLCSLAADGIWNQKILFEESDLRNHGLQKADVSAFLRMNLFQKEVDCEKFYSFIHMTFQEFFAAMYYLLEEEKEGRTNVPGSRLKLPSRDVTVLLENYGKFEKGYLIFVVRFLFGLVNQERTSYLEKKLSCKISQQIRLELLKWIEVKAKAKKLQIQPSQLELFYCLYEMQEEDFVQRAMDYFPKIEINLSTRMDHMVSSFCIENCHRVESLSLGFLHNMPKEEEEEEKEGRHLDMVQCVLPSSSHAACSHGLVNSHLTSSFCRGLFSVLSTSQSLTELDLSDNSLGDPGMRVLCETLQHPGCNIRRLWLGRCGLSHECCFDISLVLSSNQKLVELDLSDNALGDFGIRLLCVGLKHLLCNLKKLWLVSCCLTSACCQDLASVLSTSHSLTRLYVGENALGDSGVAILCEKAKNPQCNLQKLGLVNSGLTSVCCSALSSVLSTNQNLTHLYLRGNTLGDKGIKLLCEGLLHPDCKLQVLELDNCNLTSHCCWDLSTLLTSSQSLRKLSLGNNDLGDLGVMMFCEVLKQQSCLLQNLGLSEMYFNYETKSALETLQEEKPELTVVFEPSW

Row | Structure (SMILES) | IC50 (NLRP3 [1]) [nM] | IC50 (NLRP3 [2]) [nM]
1 | Cc1cc2c(c(NC(=O)NS(C)(=O)=O)c1-c1ccnc(OC3CCOCC3)c1)CCC2 [Example 22] | ≤ 250 | ≤ 250
2 | COc1cc(-n2c(C)nc(C(C)C)c2NC(=O)NS(=O)(=O)c2cc(C(C)(C)O)co2)ccn1 [Example 48, 4-(2-Hydroxypropan-2-yl)-N-((4-isopropyl-1-(2-methoxypyridin-4-yl)-2-methyl-1H-imidazol-5-yl)carbamoyl)furan-2-sulfonamide] | 250 to 500 | 250 to 500
3 | Cc1cc2c(c(NC(=O)NS(=O)(=O)N(C)C)c1-c1ccnc(OC3CCN(C)CC3)c1)CCC2 [Example 26] | ≤ 250 | ≤ 250
4 | COc1cc(-c2c(NC(=O)NS(C)(=O)=O)c(C(C)C)cc(F)c2C2CC2)ccn1 [Example 31] | 500 to 1000 | 1000 to 2000
5 | COc1cc(-c2c(C)c(F)cc(C(C)C)c2NC(=O)NS(C)(=O)=O)ccn1 [Example 7] | 250 to 500 | 500 to 1000
6 | COc1cc(-c2c(C)cc3c(c2NC(=O)NS(=O)(=O)N(C)C)CCC3)ccn1 [Example 13] | ≤ 250 | 500 to 1000
7 | Cc1cc2c(c(NC(=O)NS(C)(=O)=O)c1-c1ccnc(OC(F)F)c1)CCC2 [Example 3] | ≤ 250 | 500 to 1000
8 | Cc1nc(C(C)C)c(NC(=O)NS(=O)(=O)c2cc(C(C)(C)O)co2)n1-c1ccncc1 [Example 46, 4-(2-Hydroxypropan-2-yl)-N-((4-isopropyl-2-methyl-1-(pyridin-4-yl)-1H-imidazol-5-yl)carbamoyl)furan-2-sulfonamide, ammonium salt] | ≤ 250 | ≤ 250
9 | Cc1nc(C(C)C)c(NC(=O)NS(=O)(=O)N(C)C2CCN(C)C2)n1-c1ccncc1 (centres unmarked) [Example 49, 1-(5-Isopropyl-2-methyl-3-(4-pyridyl)imidazol-4-yl)-3-(methyl-(1-methylpyrrolidin-3-yl)sulfamoyl)urea] | 5000 to 10000 | –
10 | COCC(C)Oc1cc(-c2c(C)cc3c(c2NC(=O)NS(C)(=O)=O)CCC3)ccn1 (centres unmarked) [Example 25] | ≤ 250 | 250 to 500
11 | COc1cc(-c2c(C)cc3c(c2NC(=O)NS(=O)(=O)C2CC2)CCC3)ccn1 [Example 12] | ≤ 250 | 500 to 1000
12 | COc1cc(-c2c(C)c(F)cc(C(C)C)c2NC(=O)NS(=O)(=O)c2ccn(C3CC3)n2)ccn1 [Example 29] | ≤ 250 | 1000 to 2000
13 | Cc1cc2c(c(NC(=O)NS(C)(=O)=O)c1-c1ccncc1)CCC2 [Example 2] | ≤ 250 | 250 to 500
14 | Cc1cc2c(c(NC(=O)NS(C)(=O)=O)c1-c1ccnc(OC3CC3)c1)CCC2 [Example 4] | ≤ 250 | 250 to 500
15 | COc1cc(-c2c(C)cc3c(c2NC(=O)NS(=O)(=O)c2ccn(C4CC4)n2)CCC3)ccn1 [Example 35] | ≤ 250 | 500 to 1000
16 | Cc1nc(C(C)C)c(NC(=O)NS(=O)(=O)c2ccn(C3CC3)n2)n1-c1ccncc1 [Example 47, 1-Cyclopropyl-N-((4-isopropyl-2-methyl-1-(pyridin-4-yl)-1H-imidazol-5-yl)carbamoyl)-1H-pyrazole-3-sulfonamide] | 250 to 500 | 250 to 500
17 | Cc1cc(-c2c(C)cc3c(c2NC(=O)NS(C)(=O)=O)CCC3)ccn1 [Example 1, N-((6-Methyl-5-(2-methylpyridin-4-yl)-2,3-dihydro-1H-inden-4-yl)carbamoyl)methanesulfonamide] | 500 to 1000 | 500 to 1000
18 | Cc1cc2c(c(NC(=O)NS(=O)(=O)c3ccccc3)c1-c1ccnc(OC3CCN(C)CC3)c1)CCC2 [Example 19] | ≤ 250 | 500 to 1000

Row | Structure (SMILES) | IC50 (NLRP3 [1]) [nM] | IC50 (NLRP3 [2]) [nM]
19 | Cc1cc2c(c(NC(=O)NS(C)(=O)=O)c1-c1ccnc(OC3CCCCC3)c1)CCC2 [Example 16] | ≤ 250 | 1000 to 2000
20 | COc1cc(-c2c(F)c(F)cc(C(C)C)c2NC(=O)NS(C)(=O)=O)ccn1 [Example 33] | 500 to 1000 | 1000 to 2000
21 | [2H]C([2H])([2H])Oc1cc(-c2c(C)cc3c(c2NC(=O)NS(C)(=O)=O)CCC3)ccn1 [Example 10] | ≤ 250 | 250 to 500
22 | COc1cc(-c2c(C)cc3c(c2NC(=O)NS(C)(=O)=O)CCC3)ccn1 [Example 40, N-((5-(2-Methoxypyridin-4-yl)-6-methyl-2,3-dihydro-1H-inden-4-yl)carbamoyl)methanesulfonamide, sodium salt] | ≤ 250 | 250 to 500
23 | Cc1cc2c(c(NC(=O)NS(=O)(=O)c3ccn(C(C)C)n3)c1-c1ccnc(OC3CCN(C)CC3)c1)CCC2 [Example 44] | ≤ 250 | 250 to 500
24 | Cc1cc2c(c(NC(=O)NS(C)(=O)=O)c1-c1ccnc(OC3CCN(C)CC3)c1)CCC2 [Example 28] | ≤ 250 | ≤ 250
25 | Cc1cc2c(c(NC(=O)NS(C)(=O)=O)c1-c1ccnc(OC3CCN(C)CC3)c1C)CCC2 [Example 20] | 250 to 500 | 250 to 500
26 | CCOc1cc(-c2c(C)cc3c(c2NC(=O)NS(C)(=O)=O)CCC3)ccn1 [Example 5] | ≤ 250 | 250 to 500
27 | COc1cc(-c2c(C)cc3c(c2NC(=O)NS(=O)(=O)c2ccccc2)CCC3)ccn1 [Example 11] | ≤ 250 | 1000 to 2000
28 | Cc1cc2c(c(NC(=O)NS(=O)(=O)c3cc(C(C)(C)O)co3)c1-c1ccnc(OC3CCN(C)CC3)c1)CCC2 [Example 45] | ≤ 250 | 500 to 1000
29 | CCS(=O)(=O)NC(=O)Nc1c2c(cc(C)c1-c1ccnc(OC)c1)CCC2 [Example 42] | ≤ 250 | 250 to 500
30 | CCc1c(F)cc(C(C)C)c(NC(=O)NS(C)(=O)=O)c1-c1ccnc(OC)c1 [Example 38] | 250 to 500 | 1000 to 2000
31 | Cc1cc2c(c(NC(=O)NS(=O)(=O)C3CC3)c1-c1ccnc(OC3CCN(C)CC3)c1)CCC2 [Example 21] | ≤ 250 | ≤ 250
32 | [2H]C([2H])([2H])Oc1cc(-c2c(C)c(F)cc(C(C)C)c2NC(=O)NS(C)(=O)=O)ccn1 [Example 8] | 250 to 500 | 500 to 1000
33 | Cc1cc2c(c(NC(=O)NS(C)(=O)=O)c1-c1ccnc(O[C@H]3CC[C@@H](O)CC3)c1)CCC2 [Example 6] | ≤ 250 | ≤ 250
34 | Cc1cc2c(c(NC(=O)NS(=O)(=O)C(C)(C)C)c1-c1ccnc(OC3CCN(C)CC3)c1)CCC2 [Example 18] | ≤ 250 | 2000 to 5000
35 | Cc1cc2c(c(NC(=O)NS(C)(=O)=O)c1-c1ccnc(C#N)c1)CCC2 [Example 36] | 500 to 1000 | 500 to 1000
36 | COc1cc(-c2c(C3CC3)cc3c(c2NC(=O)NS(C)(=O)=O)CCC3)ccn1 [Example 34] | ≤ 250 | 1000 to 2000
